{"source": "paper PMC4506568", "about": "“Targeting a Dynamic Protein–Protein Interaction: Fragment Screening against the Malaria Myosin A Motor Complex” (Chemmedchem, 2014)", "molecular_target": "T1, PfMTIPΔ60 (Plasmodium falciparum myosin A tail domain interacting protein, residues 61-204) (Plasmodium falciparum, UniProt Q8I4W8)", "T1 construct": "gene MTIP; residues 61-204 (N- and C-terminal domains, disordered N-terminal extension removed), N-terminal His tag kept, recombinant as previously described; 15N-labelled for NMR; free of myoA tail", "T1 sequence (Q8I4W8 entry or part of it, stated change not applied)": "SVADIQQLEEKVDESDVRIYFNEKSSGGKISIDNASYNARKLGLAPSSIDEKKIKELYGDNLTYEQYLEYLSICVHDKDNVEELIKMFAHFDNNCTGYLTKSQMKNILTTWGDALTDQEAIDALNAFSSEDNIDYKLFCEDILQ", "experiment": "1H, […]-HSQC NMR titration", "type": "binding", "data": [{"smiles": "CN(C)Cc1ccc(CSCCN)o1", "note": "[compound 8, fragment 8]", "values": [{"measurement": "Kd", "value": "22.5 ± 2.7", "unit": "mM"}]}]}
